We go through nine molecules from article PMC2922946 (Bioorganic & medicinal chemistry, 2010).

Where a SMILES comes first, the peptide text is derived from it. The star is where a group is joined. Boc = CC(C)(C)OC(=O)*

One assay has as its target Hdm2–p53 complex (Homo sapiens, UniProt Q00987). Kind of assay: Competitive ELISA, Hdm2–p53 inhibition. The settings on record: for % Inhibition at 560 μM: ELISA, Hdm2 (1.5 μM), peptide 560 μM. The format is biochemical.
The target in the next assay is T1, Hdmx–p53 complex (Homo sapiens, UniProt O15151).
T1 sequence (O15151 1-189): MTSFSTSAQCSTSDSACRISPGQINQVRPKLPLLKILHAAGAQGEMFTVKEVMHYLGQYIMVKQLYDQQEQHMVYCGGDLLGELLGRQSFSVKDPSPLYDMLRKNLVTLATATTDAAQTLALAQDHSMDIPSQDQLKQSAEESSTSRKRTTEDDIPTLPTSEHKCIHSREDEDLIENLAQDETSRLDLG
Kind of assay: Competitive ELISA, Hdmx–p53 inhibition. It counts as biochemical. The note with it: for % inhibition at 320 μM / activity against the Hdmx–p53 complex (in words): ELISA; for % inhibition at 320 μM: Hdmx (200 nM), peptide 320 μM.

Chain of Hdm2–p53 complex (Q00987 1-188, one chain of several): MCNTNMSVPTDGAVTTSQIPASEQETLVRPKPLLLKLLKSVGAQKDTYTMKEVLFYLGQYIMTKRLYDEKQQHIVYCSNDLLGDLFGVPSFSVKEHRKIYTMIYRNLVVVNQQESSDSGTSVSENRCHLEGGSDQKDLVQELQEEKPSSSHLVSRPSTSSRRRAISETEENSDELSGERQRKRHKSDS

Consider `CC[C@H](C)[C@@H]1NC(=O)[C@H](C)NC(=O)[C@H](C(C)C)NC(=O)[C@H](Cc2ccc(O)cc2)NC(=O)[C@H](Cc2ccc(O)cc2)NC(=O)[C@H](Cc2ccccc2)NC1=O` [Compound 3, c-(AIFYYV)] (cyclo(AIFYYV)), for which the “level of activity lower than that of the decapeptide control” value at Hdm2–p53 complex (Hdm2–p53 ELISA, versus control ETFSDLWKLL) is “approximately 13 fold”. Further, the “antagonism of the Hdmx–p53 complex” value at Hdmx–p53 complex (wide range of concentrations (up to 1 mM)) is recorded as “did not antagonize”.

A word on the % inhibition: it is the relative decrease from the control value, in per cent. Low values mean a weak effect, high ones a strong effect. `CC(C)(C)OC(=O)N[C@@H](CCCNC(=N)N)C(=O)N[C@@H](Cc1c[nH]c2ccccc12)C(=O)N[C@@H](Cc1ccccc1)C(N)=O` [Compound 5a, Boc–RWF–NH2] (Boc-Arg-Trp-Phe-NH2): on Hdmx–p53 complex, the “% inhibition at 320 μM” value is recorded as “No Inhibition”.

In general, inhibition refers to the percentage by which the read-out fell short of the control. In the case of `CC(C)C[C@@H]1NC(=O)[C@H](CC(=O)O)NC(=O)[C@H](C)NC(=O)[C@H](Cc2ccccc2)NC(=O)[C@H](Cc2c[nH]c3ccccc23)NC(=O)[C@H](CCCNC(=N)N)NC1=O` [Compound 8, c-(ADLRWF)] (cyclo(ADLRWF)), on Hdmx–p53 complex (read-out: % inhibition at 320 μM), the inhibition at 320 µM was 12 ± 1%. For `CC(C)CNC(=O)[C@H](Cc1ccccc1)NC(=O)[C@H](Cc1c[nH]c2ccccc12)NC(=O)[C@H](CCCNC(=N)N)NC(=O)OCc1ccccc1` [Compound 12F], on Hdm2–p53 complex (concentration not given), the “activity against Hdm2–p53 complex” value was “no activity”.

Consider Boc-DLRWF-NH2 [Compound 7a], for which the “% inhibition at 320 μM” value at Hdmx–p53 complex is given as “No Inhibition”. In the case of Boc–DLRWF–N(CH2)5 [Compound 7b], on Hdmx–p53 complex, the “activity against the Hdmx–p53 complex (in words)” value is “dramatic reduction of activity” and the “% inhibition at 320 μM” value turned out to be 13 ± 1%. The % Inhibition is the share of the control response that was lost under treatment. The low end stands for a weak effect, the high end for a strong effect. Turning to Boc–FYYV–N(CH2)5 [Compound 2a], on Hdm2–p53 complex, the “% Inhibition at 560 μM” value is on record as “No Inhibition”. Further, at Hdm2–p53 complex (at concentrations of up to 560 μM), the “activity toward Hdm2–p53 complex” value was “no activity”. As for Boc–IFYYV–N(CH2)5 [Compound 2b], the “% Inhibition at 560 μM” value on Hdm2–p53 complex was 16 ± 1%. In the case of Boc–WF–N(CH2)5 [Compound 4b], on Hdmx–p53 complex, the “activity against the Hdmx–p53 complex (in words)” value was “measurable inhibition” and the “% inhibition at 320 μM” value was 13 ± 1%.
